Test results reported in US20210276971A1, “TRIAZAMACROCYCLE-DERIVED CHELATOR COMPOSITIONS FOR COORDINATION OF IMAGING AND THERAPY METAL IONS AND METHODS OF USING SAME” (The Research Foundation for The State University of New York, priority 2018, published 2021).

Tests used:
[1] = HPLC check of interconversion of metal-complex diastereomers; type: physicochemical; settings: HPLC-separated peaks of Sc(III)/Lu(III) complexes, reinjected
Method: FIG. 13: Sc-Overlay and Lu-Overlay—A stock solution of PICAGA (2 mg/mL) in DI water was prepared. 1.1 equivalents of metal added to the ligand. ScCl3.6H2O or Lu(ClO4)3.6H2O. pH was adjusted to 6-7 with 5 M NaOH. Complex solutions were injected on HPLC. Each peak associated with the PICAGA (5.7 and 5.9 min) was collected and reinjected at 20 min.
A direct DO3A-monoamide DUPA conjugate analogue was also synthesized. The fully assembled conjugates DOTA-DUPA and picaga-DUPA were fully deprotected and characterized using ^1H-, ^13C-NMR and mass spectrometry. Following complete characterization, the non-radioactive scandium complexes were formed and characterized using HPLC-analysis. As the glutarate arm is introduced as the pure S-entantiomer, where the alpha carbon retains the chiral alpha carbon and subsequently introduces chirality to the ligand.

[2] = EDTA challenge of ^44Sc complexes (10× excess EDTA, 37° C.); type: physicochemical; settings: for % complex stability: EDTA, 10× eq, 37° C.; for kinetic inertness (transchelation): presence of 10×EDTA
Method: Challenge experiments. To measure relative complex stability, 10 uL of ligand solution at 100000 ng/mL was added to 100 uL EDTA to produce 10× excess EDTA. Mixtures were incubated at 37° C. for 1 h. To evaluate plasma stability, 10 uL of ligand solution at 100000 ng/mL added to 50 uL mouse plasma. Incubated at 37° C. for 1 h. Tubes were intermittently vortexed and 2 uL was removed at the designated timepoints and spotted onto TLC plates.

[3] = Plasma stability of ^44Sc complexes (37° C.); type: in vitro ADME, Rat; settings: for % complex stability: Rat Plasma, 37°

SMILES | interconversion of complex diastereomers [1] | interconversion of complex diastereomers ([1]; listed as picaga-DUPA) | % complex stability ([2]; t = 0) | % complex stability ([2]; t = 10 min) | % complex stability ([2]; t = 30 min) | % complex stability ([2]; t = 60 min) | % complex stability ([3]; t = 10 min) | % complex stability ([3]; t = 30 min) | % complex stability ([3]; t = 60 min) | kinetic inertness (transchelation) [2] | kinetic inertness (transchelation) ([3]; rat plasma)
O=C(O)CC[C@H](NC(=O)N[C@@H](CCC(=O)NCCCCCNC(=O)CCC(C(=O)O)N1CCN(CC(=O)O)CCN(Cc2cccc(C(=O)O)n2)CC1)C(=O)O)C(=O)O (stereo in doubt) [PICAGA, 2-{3-[(R)-1-Carboxy-4-[5-(4-carboxy-4-{7-(carboxymethyl)-4-[(6-carboxy-2-pyridyl)methyl]-1,4,7-triazonan-1-yl}butyrylamino)pentylamino]-4-oxobutyl]ureido}glutaric acid] | limited interconversion | do not interconvert even after 12 hours |  |  |  |  |  |  |  |  | 
O=C(O)CN1CCN(CC(=O)O)CCN(CC(=O)O)CCN(CC(=O)O)CC1 [DOTA, reference compound] |  |  | 9.41% | 74.4 ± 0.4% | 73.3 ± 0.5% | 74.7 ± 0.4% | 74.8 ± 1.8% | 74.4 ± 0.7% | 75.5 ± 0.9% |  | 
O=C(O)CN1CCN(CC(=O)O)CCN(Cc2cccc(C(=O)O)n2)CC1 [MONOPIC, 6-{[4,7-Bis(carboxymethyl)-1,4,7-triazonan-1-yl]methyl}-2-pyridinecarboxylic acid] |  |  | 91.4% | 91.5 ± 0.8% | 91.4 ± 0.8% | 90.5 ± 0.6% | 90.1 ± 0.8% | 91.0 ± 0.2% | 91.6 ± 0.3% | no detectable transchelation | no detectable transchelation
O=C(O)CN1CCN(Cc2cccc(C(=O)O)n2)CCN(Cc2cccc(C(=O)O)n2)CC1 [NO1A2PIC] |  |  | 90.2% | 77.4 ± 5.2% | 67.8 ± 0.9% | 51.5 ± 0.4% | 98.9 ± 0.3% | 98.3 ± 0.1% | 97.4 ± 0.4% | diminished complex inertness | 
